Results as given in PMC6428840, “The Arabidopsis H3K27me3 demethylase JUMONJI 13 is a temperature and photoperiod dependent flowering repressor” (Nature Communications, 2019).

Target: T1, JMJ13CD (JMJ13 catalytic domain) (Arabidopsis thaliana, UniProt F4KIX0)
T1 construct: catalytic domain, residues 90-578 (jumonji, helical and C4HCHC zinc finger domains); His6-SUMO tag removed by ulp1; E. coli BL21(DE3) RIL; Ni2+ in place of Fe2+
Assay: X-ray crystal structure, […] Å
Format: binding
Conditions: JMJ13-NOG crystals soaked with 10 mM H3(24-35)K27me3 peptide; Ni2+ in place of Fe2+; pH 6.5; active site, α-KG analog

T1 sequence (F4KIX0 90-578): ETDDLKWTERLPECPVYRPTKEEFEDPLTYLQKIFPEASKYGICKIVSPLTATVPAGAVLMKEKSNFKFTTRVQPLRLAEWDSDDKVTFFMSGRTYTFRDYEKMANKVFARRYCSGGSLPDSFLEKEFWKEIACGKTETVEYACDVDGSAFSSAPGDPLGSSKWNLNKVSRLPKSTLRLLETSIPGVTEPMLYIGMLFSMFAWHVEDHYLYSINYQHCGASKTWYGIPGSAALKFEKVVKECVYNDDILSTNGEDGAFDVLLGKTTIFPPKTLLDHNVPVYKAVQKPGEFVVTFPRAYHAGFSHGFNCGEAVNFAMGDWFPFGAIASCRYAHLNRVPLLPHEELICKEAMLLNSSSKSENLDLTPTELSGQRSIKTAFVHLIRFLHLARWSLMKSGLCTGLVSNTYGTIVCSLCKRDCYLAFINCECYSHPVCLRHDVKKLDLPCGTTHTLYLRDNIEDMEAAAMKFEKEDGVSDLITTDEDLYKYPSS

## O=C(O)CNC(=O)C(=O)O [NOG, N-oxalylglycine]
  X-ray crystal structure, 2.6 Å: in complex with the α-KG analog N-oxalylglycine (NOG) and an H3K27me3 peptide
